Measurements: patent US20240218022A1, “ANTI-VISTA MACROCYCLIC PEPTIDES AND COMPOSITIONS” (BRISTOL-MYERS SQUIBB COMPANY, priority 2022, published 2024)
pIC50: −log10 of the molar value. Like-named read-outs stand apart in the source and are kept apart here. Starred links: 1 amine or outer side, 2 acyl side, 3 side chain; linkers in the order of their positions; H or OH if unused. Positions of bridges follow the written chain, without caps; N, C: chain ends. Non-standard residues stand in square brackets, D forms with d. Residues, ends and D or L forms follow the SMILES beside them. *: point of attachment. Phe(4-NH2) = Nc1ccc(C[C@H](N)C(=O)O)cc1; Phe(4-F) = N[C@@H](Cc1ccc(F)cc1)C(=O)O; γGlu = O=C(O)[C@H](CCC(=O)[*:2])N[*:1]; βAsp = O=C(O)[C@H](CC(=O)[*:2])N[*:1]; Ahp(2) = CCCCC[C@H](N)C(=O)O; NHexGly = CCCCCCNCC(=O)O; Nle = CCCC[C@H](N)C(=O)O; Aun = NCCCCCCCCCCC(=O)O; AEEA = NCCOCCOCC(=O)O; Allyl = C=CC*

Target: T1, mouse VISTA (mVISTA) (Mus musculus, UniProt Q9D659)
T1 construct: expressed in transfected cells; host or cells: Human embryonic kidney 293T cells
T1 sequence (Q9D659 33-308): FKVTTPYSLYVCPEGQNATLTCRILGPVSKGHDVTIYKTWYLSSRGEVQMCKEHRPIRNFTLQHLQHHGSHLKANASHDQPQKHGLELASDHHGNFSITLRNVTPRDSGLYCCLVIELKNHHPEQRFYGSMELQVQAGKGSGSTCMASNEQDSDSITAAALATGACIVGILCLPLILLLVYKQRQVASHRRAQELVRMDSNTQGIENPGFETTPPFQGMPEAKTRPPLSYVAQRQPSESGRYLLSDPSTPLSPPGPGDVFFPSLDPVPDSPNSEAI
Test: Cell-Based Binding High-Content Assay For mVISTA (HC CBA mVISTA)
Procedure, shortened: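 Competition of compound with a biotinylated peptide (final 2 nM, 30 min at RT) for binding to mVISTA on 293T cells, run under no-wash or wash (1 h compound preincubation then removal) formats. Readout by Alexa 647–streptavidin imaging on a high-content platform; four-parameter logistic fit gave IC50.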

[1] = the 20th table, scaffold drawing 23, read-out: HC CBA mVISTA IC50
[2] = cell-based binding high-content assay, mVISTA, read-out: HC CBA miPr ISTA IC50

SMILES	pIC50 [1]	pIC50 [2]
CCCCCCN1CC(=O)N[C@@H](Cc2ccc(O)cc2)C(=O)N[C@@H](CCCC)C(=O)N[C@@H](CC(N)=O)C(=O)N[C@@H](CCCNC(=N)N)C(=O)N[C@@H](CC(C)C)C(=O)N[C@@H](CCCCC)C(=O)N2CCC[C@H]2C(=O)N[C@@H](C(C)C)C(=O)N[C@@H](CO)C(=O)N[C@H](C(=O)NCC(=O)O)CSCC(=O)N[C@@H](Cc2ccc(F)cc2)C(=O)N[C@@H](Cc2ccc(O)cc2)C(=O)N[C@@H](CC(=O)O)C1=O [compound 1462] ({CH2CO}-[Phe(4-F)]YD[NHexGly]Y[Nle]NRL[Ahp(2)]PVSCG-OH; thioether N-14)	7.65	
CCCCCCN1CC(=O)N[C@@H](Cc2ccc(O)cc2)C(=O)N[C@@H](CCCC)C(=O)NCC(=O)N[C@@H](CCCNC(=N)N)C(=O)N[C@@H](CC(C)C)C(=O)N[C@@H](CCCCC)C(=O)N2CCC[C@H]2C(=O)N[C@@H](C(C)C)C(=O)N[C@@H](CC(=O)O)C(=O)N[C@H](C(=O)NCC(=O)O)CSCC(=O)N[C@@H](Cc2ccc(N)cc2)C(=O)N[C@@H](Cc2ccc(O)cc2)C(=O)N[C@@H](CC(=O)O)C1=O [compound 1464] ({CH2CO}-[Phe(4-NH2)]YD[NHexGly]Y[Nle]GRL[Ahp(2)]PVDCG-OH; thioether N-14)	7.50	
CCCCCCN1CC(=O)N[C@@H](Cc2ccc(O)cc2)C(=O)N[C@@H](CCCC)C(=O)N[C@H](CC(N)=O)C(=O)N[C@@H](CCCNC(=N)N)C(=O)N[C@@H](CC(C)C)C(=O)N[C@@H](CCCCC)C(=O)N2CCC[C@H]2C(=O)N[C@@H](C(C)C)C(=O)N[C@@H](CO)C(=O)N[C@H](C(=O)NCC(=O)O)CSCC(=O)N[C@@H](Cc2c[nH]c3ccccc23)C(=O)N[C@@H](Cc2ccc(O)cc2)C(=O)N[C@@H](CC(=O)O)C1=O [compound 1471] ({CH2CO}-WYD[NHexGly]Y[Nle][dN]RL[Ahp(2)]PVSCG-OH; thioether N-14)	7.48	
CCCCCCN1CC(=O)N[C@@H](Cc2ccc(O)cc2)C(=O)N[C@@H](CCCC)C(=O)NCC(=O)N[C@@H](CCCNC(=N)N)C(=O)N[C@@H](CC(C)C)C(=O)N[C@@H](CCCCC)C(=O)N2CCC[C@H]2C(=O)N[C@@H](C(C)C)C(=O)N[C@@H](CC(=O)O)C(=O)N[C@H](C(=O)NCC(=O)O)CSCC(=O)N[C@@H](Cc2ccc(O)cc2)C(=O)N[C@@H](Cc2ccccc2)C(=O)N[C@@H](CC(=O)O)C1=O [compound 1472] ({CH2CO}-YFD[NHexGly]Y[Nle]GRL[Ahp(2)]PVDCG-OH; thioether N-14)	7.81	
CCCCCCN1CC(=O)N[C@@H](Cc2ccc(O)cc2)C(=O)N[C@@H](CCCC)C(=O)N[C@@H](CC(N)=O)C(=O)N[C@@H](CCCNC(=N)N)C(=O)N[C@@H](CC(C)C)C(=O)N[C@@H](CCCCC)C(=O)N2CCC[C@H]2C(=O)N[C@@H](C(C)C)C(=O)N[C@@H](CO)C(=O)N[C@H](C(=O)NCC(=O)O)CSCC(=O)N[C@@H](Cc2ccc(O)cc2)C(=O)N[C@@H](Cc2ccc(O)cc2)C(=O)N[C@@H](CC(=O)O)C1=O [compound 1473] ({CH2CO}-YYD[NHexGly]Y[Nle]NRL[Ahp(2)]PVSCG-OH; thioether N-14)	8.49	
CCCCCCN1CC(=O)N[C@@H](Cc2ccc(O)cc2)C(=O)N[C@@H](CCCC)C(=O)N[C@@H](CC(N)=O)C(=O)N[C@@H](CCCNC(=N)N)C(=O)N[C@@H](CC(C)C)C(=O)N[C@@H](CCCCC)C(=O)N2CCC[C@H]2C(=O)N[C@@H](C(C)C)C(=O)N[C@@H](CO)C(=O)N[C@H](C(=O)NCC(N)=O)CSCC(=O)N[C@@H](Cc2ccc(O)cc2)C(=O)N[C@@H](Cc2ccc(O)cc2)C(=O)N[C@@H](CC(=O)O)C1=O [compound 1474] ({CH2CO}-YYD[NHexGly]Y[Nle]NRL[Ahp(2)]PVSCG-NH2; thioether N-14)	7.39	
C=CCOc1ccc(C[C@@H]2NC(=O)CSC[C@@H](C(=O)NCC(N)=O)NC(=O)[C@H](CC(=O)O)NC(=O)[C@H](C(C)C)NC(=O)[C@@H]3CCCN3C(=O)[C@H](CCCCC)NC(=O)[C@H](CC(C)C)NC(=O)[C@H](CCCNC(=N)N)NC(=O)CNC(=O)[C@H](C(C)C)NC(=O)[C@H](Cc3ccc(O)cc3)NC(=O)CN(CCCCCC)C(=O)[C@H](CC(=O)O)NC(=O)[C@H](Cc3ccc(O)cc3)NC2=O)cc1 [compound 1475] ({CH2CO}-Y(Allyl)YD[NHexGly]YVGRL[Ahp(2)]PVDCG-NH2; thioether N-14)	7.97	
CCCCCCN1CC(=O)N[C@@H](Cc2ccc(O)cc2)C(=O)N[C@@H](CCCC)C(=O)N[C@@H](CC(N)=O)C(=O)N[C@@H](CCCNC(=N)N)C(=O)N[C@@H](CC(C)C)C(=O)N[C@@H](CCCCC)C(=O)N2CCC[C@H]2C(=O)N[C@@H](C(C)C)C(=O)N[C@@H](CC(=O)O)C(=O)N[C@H](C(=O)NCC(=O)O)CSCC(=O)N[C@@H](Cc2ccc(OCC)cc2)C(=O)N[C@@H](Cc2c[nH]c3ccccc23)C(=O)N[C@@H](CC(=O)O)C1=O [compound 1476] ({CH2CO}-Y(Et)WD[NHexGly]Y[Nle]NRL[Ahp(2)]PVDCG-OH; thioether N-14)	7.44	
CCCCCCN1CC(=O)N[C@@H](Cc2ccc(O)cc2)C(=O)N[C@@H](C(C)C)C(=O)NCC(=O)N[C@@H](CCCNC(=N)N)C(=O)N[C@@H](CC(C)C)C(=O)N[C@@H](CCCCC)C(=O)N2CCC[C@H]2C(=O)N[C@@H](C(C)C)C(=O)N[C@@H](CC(=O)O)C(=O)N[C@H](C(=O)NCC(N)=O)CSCC(=O)N[C@@H](Cc2ccc(OC)cc2)C(=O)N[C@@H](Cc2ccc(O)cc2)C(=O)N[C@@H](CC(=O)O)C1=O [compound 1477] ({CH2CO}-Y(Me)YD[NHexGly]YVGRL[Ahp(2)]PVDCG-NH2; thioether N-14)	7.31	
CCCCCCN1CC(=O)N[C@@H](Cc2ccc(O)cc2)C(=O)N[C@@H](C(C)C)C(=O)NCC(=O)N[C@@H](CCCNC(=N)N)C(=O)N[C@@H](CC(C)C)C(=O)N[C@@H](CCCCC)C(=O)N2CCC[C@H]2C(=O)N[C@@H](C(C)C)C(=O)N[C@@H](CC(=O)O)C(=O)N[C@H](C(=O)NCC(=O)O)CSCC(=O)N[C@@H](Cc2ccc(OC)cc2)C(=O)N[C@@H](Cc2ccc(O)cc2)C(=O)N[C@@H](CC(=O)O)C1=O [compound 1478] ({CH2CO}-Y(Me)YD[NHexGly]YVGRL[Ahp(2)]PVDCG-OH; thioether N-14)	7.92	

Results, then the molecule that gave them:

pIC50 [1]	pIC50 [2]	SMILES
	7.70	CCCCCCN1CC(=O)N[C@@H](Cc2ccc(O)cc2)C(=O)N[C@@H](CC(C)C)C(=O)N[C@@H](CC(N)=O)C(=O)N[C@@H](CCCNC(=N)N)C(=O)N[C@@H](CC(C)C)C(=O)N[C@@H](CCCCC)C(=O)N2CCC[C@H]2C(=O)N[C@@H](C(C)C)C(=O)N[C@@H](CO)C(=O)N[C@H](C(=O)NCC(=O)NCCOCCOCC(=O)N[C@@H](CC(=O)O)C(=O)NCCOCCOCC(=O)NCCCCCCCCCCC(=O)O)CSCC(=O)N[C@@H](Cc2ccccc2)C(=O)N[C@@H](Cc2ccc(O)cc2)C(=O)N[C@@H](CC(=O)O)C1=O [compound 2001] ({CH2CO}-FYD[NHexGly]YLNRL[Ahp(2)]PVSCG[AEEA]D[AEEA][Aun]-OH; thioether N-14)
	7.71	CCCCCCN1CC(=O)N[C@@H](Cc2ccc(O)cc2)C(=O)N[C@@H](CC(C)C)C(=O)N[C@@H](CC(N)=O)C(=O)N[C@@H](CCCNC(=N)N)C(=O)N[C@@H](CC(C)C)C(=O)N[C@@H](CCCCC)C(=O)N2CCC[C@H]2C(=O)N[C@@H](C(C)C)C(=O)N[C@@H](CO)C(=O)N[C@H](C(=O)N[C@@H](CCC(=O)NCCOCCOCC(=O)N[C@@H](CC(=O)O)C(=O)NCCOCCOCC(=O)NCCCCCCCCCCC(=O)O)C(=O)O)CSCC(=O)N[C@@H](Cc2ccccc2)C(=O)N[C@@H](Cc2ccc(O)cc2)C(=O)N[C@@H](CC(=O)O)C1=O [compound 2002] ({CH2CO}-FYD[NHexGly]YLNRL[Ahp(2)]PVSC[γGlu][AEEA]D[AEEA][Aun]-OH; thioether N-14)
	7.42	CCCCCCN1CC(=O)N[C@@H](Cc2ccc(O)cc2)C(=O)N[C@@H](CC(C)C)C(=O)N[C@@H](CC(N)=O)C(=O)N[C@@H](CCCNC(=N)N)C(=O)N[C@@H](CC(C)C)C(=O)N[C@@H](CCCCC)C(=O)N2CCC[C@H]2C(=O)N[C@@H](C(C)C)C(=O)N[C@@H](CO)C(=O)N[C@H](C(=O)N[C@@H](CC(=O)NCCOCCOCC(=O)N[C@@H](CC(=O)O)C(=O)NCCOCCOCC(=O)NCCCCCCCCCCC(=O)O)C(=O)O)CSCC(=O)N[C@@H](Cc2ccccc2)C(=O)N[C@@H](Cc2ccc(O)cc2)C(=O)N[C@@H](CC(=O)O)C1=O [compound 2003] ({CH2CO}-FYD[NHexGly]YLNRL[Ahp(2)]PVSC[βAsp][AEEA]D[AEEA][Aun]-OH; thioether N-14)
	7.31	CCCCCCN1CC(=O)N[C@@H](Cc2ccc(O)cc2)C(=O)N[C@@H](CC(C)C)C(=O)N[C@@H](CC(N)=O)C(=O)N[C@@H](CCCNC(=N)N)C(=O)N[C@@H](CC(C)C)C(=O)N[C@@H](CCCCC)C(=O)N2CCC[C@H]2C(=O)N[C@@H](C(C)C)C(=O)N[C@@H](CO)C(=O)N[C@H](C(=O)N[C@@H](CC(=O)O)C(=O)NCCOCCOCC(=O)N[C@@H](CC(=O)O)C(=O)NCCOCCOCC(=O)NCCCCCCCCCCC(=O)O)CSCC(=O)N[C@@H](Cc2ccccc2)C(=O)N[C@@H](Cc2ccc(O)cc2)C(=O)N[C@@H](CC(=O)O)C1=O [compound 2004] ({CH2CO}-FYD[NHexGly]YLNRL[Ahp(2)]PVSCD[AEEA]D[AEEA][Aun]-OH; thioether N-14)
	7.98	CCCCCCN1CC(=O)N[C@@H](Cc2ccc(O)cc2)C(=O)N[C@@H](CCCC)C(=O)N[C@@H](CC(=O)O)C(=O)N[C@@H](CCCNC(=N)N)C(=O)N[C@@H](CC(C)C)C(=O)N[C@@H](CCCCC)C(=O)N2CCC[C@H]2C(=O)N[C@@H](C(C)C)C(=O)N[C@@H](CC(N)=O)C(=O)N[C@H](C(=O)NCC(=O)NCCOCCOCC(=O)N[C@@H](CC(=O)O)C(=O)NCCOCCOCC(=O)NCCCCCCCCCCC(=O)O)CSCC(=O)N[C@@H](Cc2ccccc2)C(=O)N[C@@H](Cc2ccc(O)cc2)C(=O)N[C@@H](CC(=O)O)C1=O [compound 2005] ({CH2CO}-FYD[NHexGly]Y[Nle]DRL[Ahp(2)]PVNCG[AEEA]D[AEEA][Aun]-OH; thioether N-14)
